Test results from patent US8835428B2, “Diacylglycerol acyltransferase inhibitors” (Piramal Enterprises Limited, priority 2008, dated 2014).

Target: T1, hDGAT1 (Homo sapiens, UniProt O75907)
T1 construct: host or cells: Sf9 insect cells (baculovirus); microsomal preparation
T1 sequence (O75907 1-488): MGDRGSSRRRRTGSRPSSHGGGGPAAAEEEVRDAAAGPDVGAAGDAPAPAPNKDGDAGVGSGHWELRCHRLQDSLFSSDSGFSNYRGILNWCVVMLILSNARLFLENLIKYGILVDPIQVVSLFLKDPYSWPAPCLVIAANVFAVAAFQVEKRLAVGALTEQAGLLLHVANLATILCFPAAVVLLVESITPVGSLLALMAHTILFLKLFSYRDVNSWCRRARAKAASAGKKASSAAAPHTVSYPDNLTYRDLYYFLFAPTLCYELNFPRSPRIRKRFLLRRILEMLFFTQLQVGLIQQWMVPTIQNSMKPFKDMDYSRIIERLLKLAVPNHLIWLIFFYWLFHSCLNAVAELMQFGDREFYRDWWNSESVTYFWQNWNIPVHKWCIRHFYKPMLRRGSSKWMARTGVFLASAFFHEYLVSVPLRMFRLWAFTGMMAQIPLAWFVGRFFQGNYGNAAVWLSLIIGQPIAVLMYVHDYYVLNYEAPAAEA
Experiment: In-vitro DGAT1 assay (hDGAT1 microsomes from Sf9 cells, 14C oleoyl CoA, triglyceride formation)
Format: biochemical
Details: At 10 μM
Outline: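 Human DGAT1 in baculovirus-infected Sf9 microsomes (2.5–10 μg), [14C]oleoyl-CoA with 409.5, 1228.5 or 1638 μM 1,2-dioleoyl-sn-glycerol, Tris-HCl pH 7.4 buffer with BSA. Compounds screened at 10, 5 and 1 μM in duplicate. Reaction 10 min at 37 °C; heptane-extracted [14C]triglyceride counted by scintillation.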

inhibition at 10 µM | % inhibition of hDGAT1 | SMILES
0 to 50% | – | COC(=O)[C@@H](NC(=O)c1onc(-c2ccc(NC(=O)Nc3ccccc3)cc2)c1-c1ccccc1)C(C)C [Example 88, (S)-3-Methyl-2-({4-phenyl-3-[4-(3-phenyl-ureido)-phenyl]-isoxazole-5-carbonyl}-amino)-butyric acid methyl ester]
0 to 50% | – | CC(C)[C@H](NC(=O)c1onc(-c2ccc(NC(=O)Nc3ccccc3)cc2)c1-c1ccccc1)C(=O)O [Example 89, (S)-3-Methyl-2-({4-phenyl-3-[4-(3-phenyl-ureido)-phenyl]-isoxazole-5-carbonyl}-amino)-butyric acid]
0 to 50% | – | COC(=O)[C@H](CC(C)C)NC(=O)c1onc(-c2ccc(NC(=O)Nc3ccccc3)cc2)c1-c1ccccc1 [Example 90, (S)-4-Methyl-2-({4-phenyl-3-[4-(3-phenyl-ureido)-phenyl]-isoxazole-5-carbonyl}-amino)-pentanoic acid methyl ester]
0 to 50% | – | CC(C)C[C@H](NC(=O)c1onc(-c2ccc(NC(=O)Nc3ccccc3)cc2)c1-c1ccccc1)C(=O)O [Example 91, (S)-4-Methyl-2-({4-phenyl-3-[4-(3-phenyl-ureido)-phenyl]-isoxazole-5-carbonyl}-amino)-pentanoic acid]
0 to 50% | – | COC(=O)[C@@H](NC(=O)c1onc(-c2ccc(NC(=O)Nc3ccc(F)cc3)cc2)c1-c1ccccc1)C(C)C [Example 92, (S)-2-[(3-{4-[3-(4-Fluoro-phenyl)-ureido]-phenyl}-4-phenyl-isoxazole-5-carbonyl)-amino]-3-methyl-butyric acid methyl ester]
0 to 50% | – | CC(C)[C@H](NC(=O)c1onc(-c2ccc(NC(=O)Nc3ccc(F)cc3)cc2)c1-c1ccccc1)C(=O)O [Example 93, (S)-2-[(3-{4-[3-(4-Fluoro-phenyl)-ureido]-phenyl}-4-phenyl-isoxazole-5-carbonyl)-amino]-3-methyl-butyric acid]
0 to 50% | – | COC(=O)[C@H](CC(C)C)NC(=O)c1onc(-c2ccc(Nc3nc4ccc(F)cc4s3)cc2)c1-c1ccccc1 [Example 94, (S)-2-({3-[4-(6-Fluoro-benzothiazol-2-ylamino)-phenyl]-4-phenyl-isoxazole-5-carbonyl}-amino)-4-methyl-pentanoic acid methyl ester]
0 to 50% | – | CC(C)C[C@H](NC(=O)c1onc(-c2ccc(Nc3nc4ccc(F)cc4s3)cc2)c1-c1ccccc1)C(=O)O [Example 95, (S)-2-({3-[4-(6-Fluoro-benzothiazol-2-ylamino)-phenyl]-4-phenyl-isoxazole-5-carbonyl}-amino)-4-methyl-pentanoic acid]
– | ++ (>50% Inhibition ≦75) | COC(=O)[C@@H](NC(=O)c1cc(-c2ccc(NC(=O)Nc3ccc(F)cc3)c(F)c2)no1)C(C)C [Example 96]
– | +++ (>75% Inhibition ≦100) | CC(C)[C@H](NC(=O)c1cc(-c2ccc(NC(=O)Nc3ccc(F)cc3)c(F)c2)no1)C(=O)O [Example 97]
50 to 75% | – | Cc1cc(-c2cc(C(=O)NC(C(=O)O)C(C)C)on2)ccc1NC(=O)Nc1c(F)cccc1F (stereo not shown) [Example 98, 2-(3-(4-(3-(2,6-Difluorophenyl)ureido)-3-methylphenyl)isoxazole-5-carboxamido)-3-methylbutanoic acid]
0 to 50% | – | Cc1cc(-c2cc(C(=O)NC(CC(C)C)C(=O)O)on2)ccc1NC(=O)Nc1c(F)cccc1F (stereo not shown) [Example 100, 2-(3-(4-(3-(2,6-Difluorophenyl)ureido)-3-methylphenyl)isoxazole-5-carboxamido)-4-methylpentanoic acid]
0 to 50% | – | COC(=O)C(C)NC(=O)c1cc(-c2ccc(NC(=O)Nc3c(F)cccc3F)c(C)c2)no1 (stereo not shown) [Example 101, Methyl 2-(3-(4-(3-(2,6-difluorophenyl)ureido)-3-methylphenyl)isoxazole-5-carboxamido)propanoate]
0 to 50% | – | Cc1cc(-c2cc(C(=O)NC(C)C(=O)O)on2)ccc1NC(=O)Nc1c(F)cccc1F (stereo not shown) [Example 102, 2-(3-(4-(3-(2,6-Difluorophenyl)ureido)-3-methylphenyl)isoxazole-5-carboxamido)propanoic acid]
75 to 100% | – | Cc1cc(-c2cc(C(=O)NC(C(=O)O)C(C)C)on2)ccc1NC(=O)Nc1ccc(F)cc1F (stereo not shown) [Example 103, 2-(3-(4-(3-(2,4-Difluorophenyl)ureido)-3-methylphenyl)isoxazole-5-carboxamido)-3-methylbutanoic acid]
75 to 100% | – | CC(C)C(NC(=O)c1nc(-c2ccc(NC(=O)Nc3ccc(F)cc3F)cc2)no1)C(=O)O (stereo not shown) [Example 104, 2-(3-(4-(3-(2,4-difluorophenyl)ureido)phenyl)-1,2,4-oxadiazole-5-carboxamido)-3-methylbutanoic acid]
50 to 75% | – | COC(=O)C(NC(=O)c1cc(-c2ccc(NC(=O)Nc3ccccc3F)cc2)no1)C(C)C (stereo not shown) [Example 105, 2-[(3-{4-[3-(2-Fluoro-phenyl)ureido]-phenyl}-isoxazole-5-carbonyl)-amino]-3-methyl-butyric acid methyl ester]
75 to 100% | – | CC(C)C(NC(=O)c1cc(-c2ccc(NC(=O)Nc3ccccc3F)cc2)no1)C(=O)O (stereo not shown) [Example 106, 2-(3-(4-(3-(2-Fluorophenyl)ureido)phenyl)isoxazole-5-carboxamido)-3-methylbutanoic acid]
0 to 50% | – | COC(=O)C(NC(=O)c1cc(-c2ccc(NC(=O)NCc3ccccc3)cc2)no1)C(C)C (stereo not shown) [Example 107, Methyl 2-(3-(4-(3-benzylureido)phenyl)isoxazole-5-carboxamido)-3-methylbutanoate]
50 to 75% | – | CC(C)C(NC(=O)c1cc(-c2ccc(NC(=O)NCc3ccccc3)cc2)no1)C(=O)O (stereo not shown) [Example 108, 2-(3-(4-(3-Benzylureido)phenyl)isoxazole-5-carboxamido)-3-methylbutanoic acid]
0 to 50% | – | COC(=O)C(CC(C)C)NC(=O)c1cc(-c2ccc(NC(=O)NCc3ccccc3)cc2)no1 (stereo not shown) [Example 109, Methyl 2-(3-(4-(3-benzylureido)phenyl)isoxazole-5-carboxamido)-4-methylpentanoate]
0 to 50% | – | CC(C)CC(NC(=O)c1cc(-c2ccc(NC(=O)NCc3ccccc3)cc2)no1)C(=O)O (stereo not shown) [Example 110, 2-(3-(4-(3-Benzylureido)phenyl)isoxazole-5-carboxamido)-4-methyl pentanoic acid]
50 to 75% | – | COC(=O)C(NC(=O)c1cc(-c2ccc(NC(=O)Nc3ccc(F)cc3F)cc2)no1)C(C)C (stereo not shown) [Example 111, Methyl 2-(3-(4-(3-(2,4-difluorophenyl)ureido)phenyl)isoxazole-5-carboxamido)-3-methylbutanoate]
75 to 100% | – | CC(C)C(NC(=O)c1cc(-c2ccc(NC(=O)Nc3ccc(F)cc3F)cc2)no1)C(=O)O (stereo not shown) [Example 112, 2-(3-(4-(3-(2,4-Difluorophenyl)ureido)phenyl)isoxazole-5-carboxamido)-3-methylbutanoic acid]
0 to 50% | – | COC(=O)C(CC(C)C)NC(=O)c1cc(-c2ccc(NC(=O)Nc3ccc(F)cc3F)cc2)no1 (stereo not shown) [Example 113, Methyl 2-(3-(4-(3-(2,4-difluorophenyl)ureido)phenyl)isoxazole-5-carboxamido)-4-methylpentanoate]
